Read-outs that look alike come from different tables or passages of the source.
Experiments:
NIH/3T3 fibroblast cells = assay: cell proliferation (SRB) assay, NIH/3T3; assay type: cell-based; conditions: Mus musculus, NIH3T3; NIH/3T3, Table 8; Mean IC50±S.E.M.; read-out: IC50 of compounds
Description: (§1) Cells were seeded in 96-well plates and maintained for 5 days in the presence of 0.5 to 20 μM of individual compound, and cell proliferation was measured by the sulforhodamine B (SRB) assay as described previously (see, for example, Palakurthi, S. S. et al. Cancer Research 2000, 60(11), 2919-2925). Briefly, at the end of a 5-day treatment, cells were fixed in 10% cold trichloroacetic acid. Cell number was estimated by measuring the remaining bound dye of sulforhodamine B after washing. The percentage of growth was calculated by using the equation: 100×[(T−T0)/(C−T0)], where T and C represent the absorbance in treated and control cultures at Day 5, and T0 at time zero, respectively. If T is less than T0, cell death has occurred and can be calculated from 100×[(T−T0)/T0].
The experiments were conducted in triplicate, and each experiment was independently performed three times. IC50=effective dose of drug that inhibit cell proliferation by 50%. Data are shown as Mean±S.E.M.
Compounds I-6p, I-17, I-18 and I-20 were tested in NIH/3T3 fibroblast and CRL-2813 melanoma cancer cells in cell proliferation assay. The experiment was conducted in triplicate and each experiment was independently performed three times. Data are shown as Mean IC50±S.E.M.

[1] = system: CRL-2813 human melanoma cancer cells; assay: cell proliferation (SRB) assay, CRL-2813; assay type: cell-based; conditions: Homo sapiens, CRL2813
In short: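 Cells exposed 5 days to 0.5–20 μM compound, then TCA-fixed and stained with sulforhodamine B. Growth as 100×[(T−T0)/(C−T0)] from absorbance of treated, control and time-zero cultures; cell death as 100×[(T−T0)/T0] where T is below T0.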

[2] = system: eIF2α phosphorylation (eIF2•GTP•Met-tRNAi ternary complex; HRI activation); assay: surrogate dual luciferase eIF2α phosphorylation (ternary complex) assay; assay type: cell-based, human; conditions: Homo sapiens; surrogate eIF2α phosphorylation assay, Table 3; read-out: Emax (F/R)
In short: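 Cell-based dual luciferase reporter: firefly luciferase behind the ATF-4 5′UTR (uORFs) and renilla luciferase behind a uORF-free 5′UTR, read with a dual glow kit. Activity given as firefly/renilla ratio normalised to DMSO wells set at 1, with a rising ratio reflecting reduced ternary complex (e.g., HRI activation).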

[3] = system: CRL-2813 human melanoma cancer cells transfected with HRI-targeting or non-targeting siRNA; assay: cell proliferation (SRB) assay after HRI knockdown; assay type: cell-based; conditions: CRL-2813 cells, FIG. 10
Description: as §1
Cell proliferation is a meaningful read-out for determining the specificity of a compound as it captures both on-target and off-target effects of the compound under study. […] If these compounds specifically activate HRI and this activity is required for the inhibition of cell proliferation, then reducing the expression of HRI should blunt their effect on cell proliferation. For this purpose, expression of HRI was knocked down in CRL-2813 human melanoma (about 70% knockdown efficiency) and MCF-7 human breast cancer cells (about 90% knockdown efficiency). These two cell lines were chosen because the HRI knockdown efficiency is lower in CRL-2813 than in MCF-7 cells providing a sort of dose-response data that correlates knockdown efficiency with the resistance of cells to inhibition of cell proliferation. […] Referring to FIG. 5A, CRL-2813 human melanoma cancer cells, and (FIG. 5B) MCF-7 human breast cancer cells were transfected with HRI targeted or non-targeted siRNA, treated with the indicated concentrations of I-6p and cell proliferation was measured by SRB assay. Calculated IC50 for all four compounds tested in CRL-2813 human melanoma cancer cells and MCF-7 human breast cancer cells transfected with non-target siRNA control (NTC) or HRI is shown in FIG. 5C and FIG. 5D, respectively. The experiment was conducted in triplicate and each experiment was independently performed three times. Data are shown as Mean±S.E.M. *NTC=non-target siRNA control.
Referring to FIG. 8, CRL-2813 human melanoma cancer cells were transfected with HRI targeted or non-targeted siRNA, treated with the indicated concentrations of (A) I-14, (B) I-15, (C) III-4 and (D) III-5 and cell proliferation was measured by SRB assay. Calculated IC50 for all four compounds tested in CRL-2813 human melanoma cancer cells transfected with non-target siRNA control (NTC) or HRI is shown in (E). The experiment was conducted in triplicate and each experiment was independently performed three times. Data are shown as Mean±S.E.M. *NTC=non-target siRNA control, IC50=effective dose of drug that inhibit cell proliferation by 50%.
In general, if the affinity of compounds for their molecular target is increased this should result in higher specificity of the compounds in the cell proliferation assay. […] These five compounds, two with average and three with high potency, were tested in cell proliferation assay using CRL-2813 cells transfected with non-targeted siRNA or HRI-targeted siRNA as described above.

IC50 ([1]; CRL-2813, Table 8, Mean IC50±S.E.M., read-out: IC50 of compounds): 1.3 ± 0.1 µM
IC50 ([1]; cell proliferation assay, Table 3, cell line not named, values equal CRL-2813 values of Table 8, read-out: IC50): 1.3 ± 0.1 µM
fold higher IC50 values in cells transfected with HRI-targeting siRNA vs. non-targeting siRNA [3]: ~5 fold
SMILES: O=C(Nc1cccc(C(F)(F)F)c1)NC1CCC(Oc2cccc(C(F)(F)F)c2)CC1 (centres unmarked) [Compound I-20, 1-(4-(3-(Trifluoromethyl)phenoxy)cyclohexyl)-3-(3-(trifluoromethyl)phenyl)urea]
IC50 (NIH/3T3 fibroblast cells): 3.3 ± 0.2 µM
maximal fold induction [2]: 26

From patent US20160318856A1, “Substituted Urea eIF2alpha Kinase Activators” (THE BRIGHAM AND WOMEN'S HOSPITAL, INC., priority 2013, published 2016)
